Measured values published in a melting point compilation (Tetko et al.; mined from patent text by program, amines drawn as free bases though some values may be those of a salt).

First: COC(c1ccc(Cl)cc1)(c1cc2c3c(c1)c(-c1cccc(Cl)c1)cc(=O)n3CCC2)c1nncn1C (centres undefined)
Second: COc1cn(-c2ccc(-n3cccn3)cc2F)nc(-c2ccnn2-c2cccc(Cl)c2)c1=O
The melting point of the first is lower: 132 °C for the first, 186 to 190 °C for the second.

Compared with `OCc1ccc(I)c(Cl)c1`, `CC(C)(Oc1ccc(F)cc1Cl)C(=O)O` is lower in melting point: 80 to 82 °C for the first, 63 to 65 °C for the second.

First: O=C(NC(=O)c1c(Cl)cccc1Cl)Nc1cncc(C(F)(F)F)n1
Second: O=C(O)COc1cc(Cl)ccc1C(=O)NCc1ccc(Cl)c(Cl)c1
The melting point of the first is higher: 188 to 192 °C for the first, 177 to 178 °C for the second.

First: CCCCOc1c(C(C)O)n(C)c(=O)c2cc(Cl)c(Cl)cc12 (centres undefined)
Second: CC(C)CCCOc1c(-c2ccc(S(C)(=O)=O)cc2)cnn(-c2ccc(F)c(F)c2)c1=O
The melting point of the first is higher: 123 to 124 °C for the first, 98 to 99 °C for the second.

First: COC(=O)C1=C(C)NC(C)=C(C(=O)OCCC#N)C1c1cccc2c(=O)c(C)c(-c3ccccc3)oc12 (centres undefined)
Second: Cc1cc(C)c(C)c(COc2cccc(-c3ccoc3C(=O)NNC(=O)c3ccc(O)c(C#N)c3)c2)c1C
The melting point of the first is lower: 190 to 192 °C for the first, 210 to 211 °C for the second.

Compared with `O=C1c2ccccc2C(=O)N1CCCSC1N=CC=CN1NC(=S)NCC(F)(F)F` (centres undefined), `CN(C)CCCCC1CCCN(CCNC(=O)N2c3ccccc3C(=O)Nc3cccnc32)C1` (centres undefined) is lower in melting point: 214 to 215 °C for the first, 119 to 120 °C for the second.

First: Cc1cccc(C)c1/N=C1\SCC(=O)N1/N=C/c1ccc(-c2ncn(-c3ccc(OC(F)(F)F)cc3)n2)cc1
Second: COc1nnc(-c2ccc3ncn(-c4ccc(OC(F)(F)F)cc4)c3c2)o1
The melting point of the first is higher: 209 to 213 °C for the first, 150 to 151 °C for the second.

Compared with `CC(C)(c1ccc(N)cc1)c1ccc(N)cc1`, `Cc1ccccc1C(=O)N(C)c1ccc(C(=O)O)cc1` is higher in melting point: 130 to 132 °C for the first, 187 to 190 °C for the second.

First: CC(C)(CNc1ccc(C2=NNC(=O)CC2)cc1)NCC(O)COc1ccccc1 (centres undefined)
Second: CC(=O)Nc1nc(N)nc(-c2ccc(Oc3ccccc3)cc2)n1
The melting point of the first is lower: 147 to 148 °C for the first, > 260 °C for the second.

First: O=[N+]([O-])c1cccc(N2N=C(O)c3ccccc3C2CCO)c1 (centres undefined)
Second: COC(=O)c1nc(O)ccc1OCc1ccccc1
The melting point of the first is higher: 164 to 165 °C for the first, 91 to 92 °C for the second.

First: Cc1nc2ccccn2c(=O)c1CCN1CCN(C(=NNc2ccccc2)c2ccccc2F)CC1
Second: NC(=O)C1c2ccccc2SN1CCN1CCN(c2nsc3ccccc23)CC1 (centres undefined)
The melting point of the first is higher: 180 °C for the first, 160 to 163 °C for the second.

Compared with `CC(C)Oc1nc(C#N)c(C#N)nc1Cl`, `Cc1cc2c(-c3cccc(C(F)(F)F)c3)nc(C#N)nc2s1` is higher in melting point: 48.5 to 50 °C for the first, 121 to 122 °C for the second.

First: N#Cc1ccc(OCCCCOc2cccc(-c3cc4cc(C#N)ccc4o3)c2)cc1
Second: Nc1ncc(-c2cccc(-n3cnc4cc(-c5ccco5)ccc43)c2)cn1
The melting point of the first is lower: 130 to 132 °C for the first, 220 to 222 °C for the second.

First: C1=C(c2ccc3ccccc3c2)CCN(Cc2c[nH]c3ncccc23)C1
Second: O=C(c1nc(-c2ccccc2)nc2ccccc12)N1CCOCC1
The melting point of the first is higher: 223 to 225 °C for the first, 148 °C for the second.

First: COc1ccc(/C=C/C(=O)/C=C/c2ccc(OC)c(O)c2)cc1O
Second: CCCCn1c(=O)n(C)c(=O)c2nc(-c3ccc(/C=C/C(=O)O)cc3)[nH]c21
The melting point of the first is lower: 195 to 197 °C for the first, > 300 °C for the second.

Compared with `O=C(CO)c1ccc(F)c(F)c1Nc1ccc(I)cc1F`, `CN1Cc2ccccc2C(=O)c2cc(CC(=O)O)ccc21` is higher in melting point: 128 °C for the first, 194 to 196 °C for the second.

First: COC(=O)c1ccc(CNC(=O)c2cccc(-c3nnn(Cc4ccc(OC)cc4)n3)c2)cc1
Second: COc1ccc(Cc2nc3n(c2Cc2ccc(OC)cc2)CCS3=O)cc1 (centres undefined)
The melting point of the first is lower: 167 to 168 °C for the first, 190 to 191 °C for the second.

First: COC(=O)COc1cccc2c(CCBr)coc12
Second: COc1c(CO)cccc1Oc1ccccc1C
The melting point of the first is lower: 58 to 59 °C for the first, 63 to 65 °C for the second.

Compared with `COC(=O)C1CC(=O)N(c2ccc(C)cc2)C1` (centres undefined), `COC(=O)C1CCCC(=C(N)c2ccc(Cl)cc2)C(=O)C1` (centres undefined) is higher in melting point: 71 to 74 °C for the first, 154 to 155 °C for the second.

First: CC(C)c1ccc2c(c1)c(SCC1CC1)c(CC(C)(C)C(=O)O)n2Cc1ccc(Cl)cc1
Second: COC(=O)COc1ccc(Cl)c2c1c1c(n2Cc2ccccc2)CCCC1C(N)=O (centres undefined)
The melting point of the first is lower: 123 to 124 °C for the first, 185 to 186 °C for the second.

First: CC(C)(C)OC(=O)Nc1cccc(C2(O)CCOCC2)c1
Second: Cc1ccccc1C(=O)NC(NC(=S)Nc1cccnc1)C(C)(C)C (centres undefined)
The melting point of the first is lower: 140 to 142 °C for the first, 186 to 187 °C for the second.

First: CCS(=O)(=O)Nc1n[nH]c2nc(Oc3ccc(F)cc3F)ncc12
Second: NC(=O)c1cc(-n2cnn(Cc3ccc(F)cc3)c2=O)n[nH]1
The melting point of the first is lower: 226 to 227 °C for the first, > 270 °C for the second.

Compared with `c1ccc2c(c1)-c1sccc1C2Cc1ccncc1` (centres undefined), `CC(=O)CCc1cc(-c2ccncc2)sc1-c1ccncc1` is higher in melting point: 91 to 93 °C for the first, 162 to 163 °C for the second.

First: CN1CCC(Cn2c(=O)[nH]c3ncc(-c4ccc(O)cc4)nc32)CC1
Second: O=C(NCc1ccncc1)c1ccnc(N2CCN(CC3CC3)C2=O)c1
The melting point of the first is higher: 292 to 294 °C for the first, 160 to 162 °C for the second.

Compared with `CCCCCCCCc1ccc(-c2ncc(OCC(C)OC(=O)CCCCCC)cn2)cc1` (centres undefined), `CCCCCCn1c2c(c(=O)n3nc(-c4ccccc4)cc13)CN(C1CCCCC1)C2=O` is higher in melting point: 33 to 34.3 °C for the first, 162 to 164 °C for the second.

Compared with `CC1(C)C(=O)Oc2c(S(C)(=O)=O)cc3cc(S(C)(=O)=O)c(Cn4cncn4)cc3c21`, `CCN(CC)C(=O)Nc1ccc(S(=O)(=O)N2C(=O)C(N)(c3ccccc3Cl)c3cc(Cl)ccc32)cc1` (centres undefined) is lower in melting point: 263 to 264 °C for the first, 195 to 196 °C for the second.

First: Cc1ccc(S(=O)(=O)Oc2ccc(C(c3ccc(OS(=O)(=O)c4ccc(C)cc4)c([N+](=O)[O-])c3)(C(F)(F)F)C(F)(F)F)cc2[N+](=O)[O-])cc1
Second: Cc1ccc(S(=O)(=O)OCCC2C3=C(CC=CC3)CCc3ccccc32)cc1 (centres undefined)
The melting point of the first is higher: 206 to 208 °C for the first, 150 to 151 °C for the second.

Compared with `C[C@H]1N(C(=O)c2ccc(C(F)(F)F)cc2)CC(F)O[C@@]1(Cn1cncn1)c1ccc(Cl)cc1Cl` (relative stereo), `FC(F)(F)c1ccc(-c2cc(C(F)(F)F)n3ncc(I)c3c2)cc1` is lower in melting point: 151 to 156 °C for the first, 130 °C for the second.

First: Cc1nc(NC(=N)N)sc1C=O
Second: COc1ccc(-c2nc(C)c(C(C)=O)[nH]2)cc1
The melting point of the first is higher: 176 to 178 °C for the first, 162 to 165 °C for the second.

First: COc1ccc(N=C(C#Cc2ccccc2)N2CCN(Cc3ccc(C)cc3)CC2)cc1Cl
Second: CN1CCC(Oc2ccc(Cl)cc2)(c2ccccc2)C(O)C1 (centres undefined)
The melting point of the first is lower: 113 °C for the first, 164 to 165 °C for the second.

First: CCS(=O)(=O)c1cc(C(=O)NCC2CCCN2C)c(OC)cc1N (centres undefined)
Second: CCc1c(NC(=O)c2cc(S(C)(=O)=O)ccc2OCC(C)C)c(C(N)=O)nn1C1CCN(C(=O)OC(C)(C)C)CC1
The melting point of the first is lower: 126 to 127 °C for the first, 134 to 141 °C for the second.

First: CCc1nc2c(-c3cc4c(c(Br)c3C)OCC4)ncnc2n1C(C1CC1)C1CC1
Second: CCCc1nn(C)c2c(=O)[nH]c(-c3cc(S(=O)(=O)N4C[C@@H](C)N[C@@H](C)C4)ccc3OCC)nc12
The melting point of the first is lower: 179 to 180 °C for the first, 202 to 203 °C for the second.

Compared with `CCCCOC1C=CC(=O)N1S(=O)(=O)c1ccc(OC)cc1` (centres undefined), `CS(=O)(=O)c1ccc(C2=C(c3ccccc3)C(=NO)C2)cc1` is higher in melting point: 65 to 66 °C for the first, 146 to 148 °C for the second.

Compared with `Oc1c(CCl)cc(F)cc1CCl`, `C=CCc1cc(C(=O)O)ccc1O` is higher in melting point: 70 °C for the first, 119 to 123 °C for the second.

First: CC1=C2CCc3cc(Cl)ccc3N2CCC1=O
Second: Cc1noc(CCc2c(-c3ccccc3)c(=O)[nH]c3cc(Cl)ccc23)n1
The melting point of the first is lower: 112 to 114 °C for the first, 235 to 238 °C for the second.

First: O=C(CNC(=O)CSC(=O)c1ccccc1)CNC(=O)CSC(=O)c1ccccc1
Second: CNC(=S)NC(c1ccccc1)c1ccccc1
The melting point of the first is lower: 134 to 140 °C for the first, 152 to 154 °C for the second.

First: CCOP(=S)(OCC)Oc1nsc(N(C)C)n1
Second: CCn1ncc2c1ncc1c(NCCN(C)C)nc3cc(C)nn3c12
The melting point of the first is lower: 48 °C for the first, 124 to 126 °C for the second.

Compared with `CC(C)C(NC(=O)OCCN1CCOCC1)C(=O)NC(Cc1ccccc1)C(O)C(Cc1ccccc1)NC(=O)C(NC(=O)OCc1ccccc1)C(C)C` (centres undefined), `CC(=O)OC(C(=O)N1C(Cc2ccccc2)COC1(C)C)c1ccc(-c2ccc(-c3ccccc3)cc2)o1` (centres undefined) is lower in melting point: 159 to 161 °C for the first, 120 to 128 °C for the second.

First: Cc1ccc(C2CCN(C(=O)CCC(=O)c3ccc4c(c3)CCN(C(=O)C(F)(F)F)CC4)CC2)cc1
Second: O=C(CCCN1CCCCC1)c1ccc2c(c1)Cc1cc(C(=O)CCCN3CCCCC3)ccc1-2
The melting point of the first is lower: 132 to 134 °C for the first, 157 to 159 °C for the second.

`O=c1[nH]c2sc3cc(Br)c(F)cc3c2[nH]c1=O` and `O=C(Oc1n[nH]c(=O)c2nc3cc(Cl)ccc3c(O)c12)c1ccccc1` cannot be ordered by melting point: > 300 °C for the first, 348 to 353 °C for the second.

First: CC(C)C(C)(C)NC(N)=O
Second: COC(=O)c1sccc1S(=O)(=O)NC(=O)Nc1nc(C)cc(C)n1
The melting point of the first is lower: 175 to 176 °C for the first, 191 to 193 °C for the second.

First: O=C1c2c(cccc2C(F)(F)F)-n2cnc(-c3noc(CN4Cc5ccccc5C4)n3)c2[C@@H]2CCN12
Second: CCn1nc(C)c2c(NCc3ccccc3)c3ccccc3nc21
The melting point of the first is lower: 185 to 188 °C for the first, 228 to 231 °C for the second.

Going from `CC(=O)SCC(=O)NCCSC=CSCCNC(=O)CSC(C)=O` to `CC(=O)C1CCC(=O)N1C(C)=O` (centres undefined), the melting point falls from 129 °C to 62 °C.

Compared with `O=C1CC(=O)/C(=C/c2ccccc2)N1`, `CC(C)C(=O)N(Cc1ccccc1)c1nnn(Cc2ccccc2)n1` is lower in melting point: 186 to 187 °C for the first, 68 °C for the second.

Compared with `Nc1cc(F)c(OC(F)F)cc1[N+](=O)[O-]`, `NC(=O)C1CCc2[nH]c3ccc(OC(F)(F)F)cc3c2C1` (centres undefined) is higher in melting point: 95 to 97.5 °C for the first, 177 to 178 °C for the second.

Compared with `O=C(Nc1cccc2c1C(=O)c1c-2n[nH]c1-c1ccc(N2CCC(N3CCOCC3)CC2)cc1)NN1CCOCC1`, `COc1cccc2c1CC(N(CCCc1c[nH]c3ccc(F)cc13)CC1CCC1)CO2` (centres undefined) is lower in melting point: 249 °C for the first, 115 °C for the second.

First: CC1(C(=O)C2(C)COCOC2)COCOC1
Second: CC(=NC#N)NC1=CC(C)(C)Oc2ccc(C#N)cc21
The melting point of the first is lower: 100 to 102 °C for the first, 205 to 206 °C for the second.

First: CCOCc1nc2c(N)nc(C)cc2n1CCCCNS(C)(=O)=O
Second: Cc1nn(C)c2c(=O)n(C)c(=O)n(C)c12
The melting point of the first is lower: 162 to 164 °C for the first, 210 to 211 °C for the second.

First: O=[N+]([O-])C(CO)(CO)c1cc(Br)cnc1Cl
Second: CCOc1cc(C)cc(C)c1C
The melting point of the first is higher: 162 to 163 °C for the first, 93 to 95 °C for the second.

In the case of `NS(=O)(=O)c1cc2c(s1)SCCNC2=O`, the melting point is reported as > 270 °C.
